Laboratory results taken from PubChem BioAssay (NCI).
Where “and” joins values, the source holds several entries; their conditions need not be identical. Identical values can stand only once.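 Following 48 hours of exposure in 96-well plates, responses at five concentrations were used to interpolate endpoints linearly. Abbreviation: GI50, concentration required for 50% inhibition of growth. TGI marks complete inhibition of growth.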

Assays:
Experiment in all cases: NCI anticancer screen, dose series, 48 h
COLO 205 colon = tested on: COLO 205 colon
HL-60(TB) leukemia = tested on: HL-60(TB) leukemia
KM12 colon = tested on: KM12 colon
NCI-H226 lung = tested on: NCI-H226 lung
NCI-H23 lung = tested on: NCI-H23 lung
OVCAR-5 ovarian = tested on: OVCAR-5 ovarian
SNB-75 CNS = tested on: SNB-75 CNS
SR leukemia = tested on: SR leukemia
SW-620 colon = tested on: SW-620 colon
U251 CNS = tested on: U251 CNS

Compound | TGI (COLO 205 colon) | TGI (HL-60(TB) leukemia) | TGI (KM12 colon) | TGI (NCI-H226 lung) | TGI (NCI-H23 lung) | TGI (OVCAR-5 ovarian) | TGI (SNB-75 CNS) | TGI (SR leukemia) | TGI (SW-620 colon) | TGI (U251 CNS) | GI50 (COLO 205 colon) | GI50 (HL-60(TB) leukemia) | GI50 (KM12 colon) | GI50 (NCI-H226 lung) | GI50 (NCI-H23 lung) | GI50 (OVCAR-5 ovarian) | GI50 (SNB-75 CNS) | GI50 (SR leukemia) | GI50 (SW-620 colon) | GI50 (U251 CNS)
Cc1ccc(C=NC23CC4CC(CC(C4)C2)C3)cc1 | > 100 µM | > 100 µM | > 100 µM | > 100 µM | > 100 µM | > 100 µM | > 100 µM | > 100 µM | > 100 µM | > 100 µM | – | – | – | – | – | – | – | – | – | –
CC1CCCc2c1c1ccc3c(O)cccc3c1oc2=O (stereo not drawn) | > 100 µM | > 100 µM | > 100 µM | > 100 µM | > 100 µM | > 100 µM | 21.8 µM | > 100 µM | > 100 µM | > 100 µM | – | – | – | – | – | – | – | – | – | –
Cc1cc(C)c(S(=O)(=O)N(CCc2cccc(Br)c2)Cc2ccc(-c3cccc(S(C)(=O)=O)c3)cc2)c(C)c1 | > 100 µM | > 100 µM | > 100 µM | > 100 µM | > 100 µM | > 100 µM | > 100 µM | > 100 µM | > 100 µM | > 100 µM | > 100 µM | > 100 µM | > 100 µM | > 100 µM | > 100 µM | > 100 µM | > 100 µM | > 100 µM | > 100 µM | > 100 µM
COc1cccc(N=N/C(=N\NC(=O)c2cc(Br)ccc2O)c2ccc(N(CCC#N)CCC#N)cc2OC)c1 | 106 µg/mL | 15 µg/mL | 83.4 µg/mL | 79.7 µg/mL | > 150 µg/mL | > 150 µg/mL | 69.5 µg/mL | > 150 µg/mL | > 150 µg/mL | > 150 µg/mL | 33.1 µg/mL | 15 µg/mL | 26.9 µg/mL | 22 µg/mL | 68.5 µg/mL | 79.2 µg/mL | 19.6 µg/mL | 71.4 µg/mL | 63.1 µg/mL | 34.4 µg/mL
O=C(NC1C2CC3CC(C2)CC1C3)/C(Cl)=C1/Sc2ccccc2NC1=O (stereo not drawn) | > 100 µM | > 100 µM | > 100 µM | > 100 µM | > 100 µM | > 100 µM | > 100 µM | > 100 µM | > 100 µM | > 100 µM | – | – | – | – | – | – | – | – | – | –
Cc1ncc(C(=O)Nc2ccc(CN3CCN(C)CC3)c(C(F)(F)F)c2)cc1C#Cc1c(N)ncc2ccccc12 | 0.619 µM | 0.817 µM | 0.479 µM | 1.04 µM | 1.02 µM | 0.985 µM | 0.975 µM | 1.04 µM | 0.754 µM | 1.07 µM | 0.131 µM | 0.247 µM | 0.00444 µM | 0.393 µM | 0.439 µM | 0.415 µM | 0.458 µM | 0.26 µM | 0.227 µM | 0.539 µM
COc1ccc2c(c1)c(-c1ccc(-c3cn(C)c4ccc(OC)cc34)[nH]1)cn2C | 4.74 µM | 5.69 µM | 9.59 µM | 22.2 µM | 33 µM | 11 µM | 6.26 µM | 4.01 µM | 5.86 µM | 3.52 µM | 1.92 µM | 2.36 µM | 2.75 µM | 8.2 µM | 4.84 µM | 3.11 µM | 2.25 µM | 1.31 µM | 2.26 µM | 1.4 µM
Cc1nc2c(N3CCCC3)nc(N3CCNCC3)nc2nc1NCc1ccccc1 | 7.59 µM and 3.32 µM | 13.2 µM and 11.8 µM | 26.6 µM and 13.3 µM | 16.1 µM and 28.4 µM | 12.7 µM and 23.7 µM | 11.6 µM and 26.1 µM | 4.11 µM and 4.69 µM | 20 µM and > 20.8 µM | 12.5 µM and 7.27 µM | 11.7 µM and 13 µM | 1.77 µM | 4.71 µM | 6.53 µM | 7.54 µM | 6.77 µM | 6.11 µM | 1.85 µM | 1.53 µM | 5.9 µM | 4.27 µM
NC(=O)c1ccccc1NC(=O)c1ccccc1Cl | > 100 µM | > 100 µM | > 100 µM | > 100 µM | > 100 µM | > 100 µM | > 100 µM | > 100 µM | > 100 µM | > 100 µM | > 100 µM | > 100 µM | > 100 µM | > 100 µM | > 100 µM | > 100 µM | > 100 µM | > 100 µM | > 100 µM | > 100 µM
Cc1ccc2nc(-c3ccc(N)c4ccccc34)[nH]c2c1 | 6.31 µM | 3.29 µM | 13.5 µM | 32.1 µM | 23.9 µM | > 73.3 µM | – | 2.09 µM | 27.5 µM | 22.5 µM | 1.07 µM | 0.102 µM | 2.46 µM | 0.751 µM | 0.159 µM | 0.326 µM | 1.38 µM | 0.325 µM | – | 0.0619 µM
Nc1cc(S(N)(=O)=O)ccc1SSc1ccc(S(N)(=O)=O)cc1N | > 100 µM | > 100 µM | > 100 µM | > 100 µM | > 100 µM | > 100 µM | > 100 µM | > 100 µM | > 100 µM | > 100 µM | – | – | – | – | – | – | – | – | – | –
Nc1ccc(C(OC(=O)c2cc3ccccc3c(Cc3c(O)c(C(=O)OC(c4ccc(N)cc4)(c4ccc(N)cc4)c4ccc(N)cc4)cc4ccccc34)c2O)(c2ccc(N)cc2)c2ccc(N)cc2)cc1 | 3.15 µM | 23.3 µM | 12.7 µM | 15.7 µM | 17.3 µM | 17.2 µM | 11.7 µM | > 100 µM | 13.9 µM | 12.6 µM | 1.21 µM | 4.04 µM | 0.608 µM | 1.76 µM | 0.645 µM | 2.7 µM | 0.497 µM | 4.18 µM | 1.14 µM | 0.248 µM
O=C(CNc1ccc2c(=S)c3ccccc3[nH]c2c1)Nc1ccccc1-c1ccccc1NC(=O)CNc1ccc2c(=S)c3ccccc3[nH]c2c1 | 35.8 µM | 13.4 µM | 42.7 µM | 54.6 µM | 32.3 µM | 53.5 µM | 71.9 µM | 41.1 µM | 39.5 µM | 42.3 µM | – | – | – | – | – | – | – | – | – | –
CN(C)CCSCCO | > 100 µM | > 100 µM | > 100 µM | > 100 µM | > 100 µM | > 100 µM | > 100 µM | > 100 µM | > 100 µM | > 100 µM | – | – | – | – | – | – | – | – | – | –
